{"source": "patent US20120258974A1", "about": "“USE OF A2B ADENOSINE RECEPTOR ANTAGONISTS FOR TREATING HEART FAILURE AND ARRHYTHMIA IN POST-MYOCARDIAL INFARCTION PATIENTS” (GILEAD SCIENCES, INC., priority 2011, published 2012)", "key": {"[1]": {"system": "acute myocardial infarction in the mouse (male ICR mice, coronary artery ligation)", "assay": "Cardiac remodeling after coronary artery ligation in ICR mice (Example 3)", "assay_type": "in vivo", "experimental": "Male ICR mice underwent coronary artery ligation or sham surgery (N=8-10 per group). A selective A2B antagonist, Compound A 4 mg/kg in a formulated dosing suspension, every 12 hours i.p., was given starting immediately after the surgery and continued for 14 days. Transthoracic echocardiography was performed prior to surgery and then 7, 14 and 28 days later. A subgroup of mice was sacrificed 72 hours after surgery and the activity of caspase-1, a key proinflammatory mediator, was measured in the cardiac tissue."}, "caspase-1": {"system": "caspase-1", "assay": "Caspase-1 activity in heart tissue 72 hours after surgery (Example 4)", "assay_type": "in vivo, mouse", "conditions": "4 mg/kg i.p. twice daily from coronary ligation", "experimental": "Adult out-bred male CD1 mice (8-12 weeks of age) were supplied by Harlan Sprague Dawley (Indianapolis, Ind.). The experiments were conducted under the guidelines of laboratory animals for biomedical research published by National Institutes of Health (No. 85-23, revised 1996). The study protocol was approved by the Virginia Commonwealth University Institutional Animal Care and Use Committee. Experimental AMI was induced by permanent coronary artery ligation in order to induce a large non-reperfused infarct involving approximately 30% of the left ventricle and leading to an ischemic dilated cardiomyopathy (Mezzaroma et al. Proc Natl Acad Sci 2011—in press and Abbate et al. Circulation 2008; 117:2670-83). […]\nAn additional subset of mice was sacrificed 72 hours after surgery (N=4-6 per treatment group). […] The tissue activity of caspase-1 was determined by cleavage of a fluorogenic substrate (CaspACE, Promega, Madison, Wis.) (Abbate et al. Circulation 2008; 117:2670-83). […] Fluorescence was measured after 60 minutes and was expressed as arbitrary fluorescence units produced by one microgram of sample per minute (fluorescence/μg/min) and calculated as fold change compared to the caspase-1 activity in homogenates of the hearts of sham-operated mice."}, "[2]": {"system": "CD1 mice with experimental AMI (permanent coronary artery ligation)", "assay": "Transthoracic echocardiography of cardiac remodeling after AMI (Example 4)", "assay_type": "in vivo, mouse", "experimental": "Adult out-bred male CD1 mice (8-12 weeks of age) were supplied by Harlan Sprague Dawley (Indianapolis, Ind.). The experiments were conducted under the guidelines of laboratory animals for biomedical research published by National Institutes of Health (No. 85-23, revised 1996). The study protocol was approved by the Virginia Commonwealth University Institutional Animal Care and Use Committee. Experimental AMI was induced by permanent coronary artery ligation in order to induce a large non-reperfused infarct involving approximately 30% of the left ventricle and leading to an ischemic dilated cardiomyopathy (Mezzaroma et al. Proc Natl Acad Sci 2011—in press and Abbate et al. Circulation 2008; 117:2670-83). Briefly, mice were orotracheally intubated under anesthesia (pentobarbital 50 to 70 mg/kg), placed in the right lateral decubitus position, then subjected to a left thoracotomy, pericardiectomy, and ligation of the proximal left coronary artery. The chest was closed and the animals were allowed to recover. The mice surviving surgery were randomly assigned to the different groups of treatment (N=6-15 per group). Sham operations were performed wherein animals underwent the same surgical procedure without coronary artery ligation (N=4-8 per group).\nThe A2B AdoR antagonist, Compound A, was obtained from Gilead Sciences, Foster City, Calif. Mice were randomly assigned to treatment with Compound A (4 mg/kg) or matching dose of vehicle administered intraperitoneally (final volume 0.13 mL) every 12 hours for 14 days starting immediately after coronary artery ligation surgery. An additional group of mice received a lower dose of Compound A (2 mg/kg) to explore a dose-response relationship. Two additional groups of mice received Compound A (4 mg/kg) starting 1 hour after surgery to simulate a clinical scenario of treatment delay. […]\nAll mice underwent transthoracic echocardiography at baseline (before surgery), and at 7, 14 and 28 days after surgery (prior to sacrifice). […] This example measured the left ventricular (LV) end-diastolic and end-systolic areas at B-Mode and the LV end-diastolic diameter (LVEDD), LV end-systolic diameters (LVESD), LV anterior wall diastolic thickness (LVAWDT), and LV posterior wall diastolic thickness (LVPWDT) at M-Mode, as previously described (Abbate et al. Circulation 2008; 117:2670-83; Toldo et al. PloS One 2011; 6:e18102) and according to the American Society of Echocardiography recommendations (Gardin et al. J Am Soc Echocardiogr 2002; 15:272-90). LV fractional shortening (FS), LV ejection fraction (EF), LV mass and eccentricity (LVEDD/LVPWDT ratio) were calculated (Abbate et al. Circulation 2008; 117:2670-83; Toldo et al. PloS One 2011; 6:e18102; Gardin et al. J Am Soc Echocardiogr 2002; 15:272-90). The transmitral and left ventricular out flow tract Doppler spectra were recorded from an apical 4-chamber views, and the myocardial performance index (MPI or Tei index) was calculated as the […] of the isovolumetric contraction and relaxation time divided by the ejection time (Tei et al. Am J Cardiol 1995; 26:357-366). LV stroke volume was calculated using the Velocity-Time Integral (VTI) of the LV outflow tract flow multiplied by the LV outflow tract area, and cardiac output was calculated multiplying LV stroke volume by the heart rate (Abbate et al. Circulation 2008; 117:2670-83; Toldo et al. PloS One 2011; 6:e18102; Gardin et al. J Am Soc Echocardiogr 2002; 15:272-90). […]"}, "[3]": {"system": "rats with MI (25 minutes coronary occlusion followed by reperfusion)", "assay": "VT inducibility in rat model of post-MI remodeling (Example 6)", "assay_type": "in vivo", "conditions": "5 weeks post-MI; total N 11", "experimental": "The effects of Compound A in a rat model of post-MI remodeling and VT were determined. MI was caused by 25 minutes occlusion at the left anterior descending coronary ligation followed by reperfusion. One week later, rats were administered either vehicle or Compound A (100 mg/kg) once daily by oral gavage. Serial echocardiograms (ECHOs) to measure LV ejection fraction (LVEF), stroke volume and LV end systolic volume (LVESV) were obtained at baseline, 1 week and 5 week post-MI. Electrophysiological studies, optical mapping, histology and biomarker analysis were conducted at 5 week post-MI.\nVentricular tachycardia (VT) is a common cause of mortality in post-MI patients, even with current coronary revascularization treatment. In this rat model of post-MI remodeling, VT was consistently inducible in more than half of the animals. Thus, the effect of Compound A in VT inducibility was determined at 5 weeks post-MI."}, "[4]": {"conditions": "echocardiography, 4 mg/kg i.p. every 12 hours for 14 days, vs vehicle"}}, "note": "Entries after “also recorded” stand apart in the source; their conditions may differ."}
{"smiles": "CCCn1c(=O)c2[nH]c(-c3cnn(Cc4cccc(C(F)(F)F)c4)c3)nc2n(CC)c1=O", "note": "[Compound A, 3-ethyl-1-propyl-8-(1-(3-(trifluoromethyl)benzyl)-1H-pyrazol-4-yl)-1H-purine-2,6(3H,7H)-dione]", "values": [{"measurement": "mice that died during the 4 weeks post-surgery", "setting": "[1]; 4 mg/kg i.p. every 12 hours for 14 days, vehicle 42%", "value": 25, "unit": "%"}, {"measurement": "caspase-1 activity in the cardiac tissue", "setting": "[1]; 72 hours after surgery, 4 mg/kg i.p. every 12 hours, vs vehicle", "value": "significantly reduced"}, {"measurement": "LV ejection fraction", "setting": "[1]; [4]", "value": "increased"}, {"measurement": "end-diastolic diameter", "setting": "[1]; [4]", "value": "significantly reduced"}, {"measurement": "myocardial performance index", "setting": "[1]; [4]", "value": "significantly reduced"}, {"measurement": "caspase-1 activation / activity in the heart during AMI", "setting": "caspase-1", "value": "prevented; also recorded: nearly complete reduction"}, {"measurement": "myocardial diastolic/systolic performance (myocardial performance index)", "setting": "[2]; AMI mice", "value": "preservation"}, {"measurement": "right ventricular enlargement and dysfunction", "setting": "[2]; AMI mice", "value": "less"}, {"measurement": "absolute difference in mean LVEF vs vehicle", "setting": "[2]; LV systolic function significantly greater in Compound A group", "value": 5, "unit": "%"}, {"measurement": "reduction of LV enlargement after AMI", "setting": "[2]; at 28 days", "value": "approximately 40%"}, {"measurement": "left and right ventricular enlargement and dysfunction", "setting": "[2]; every 12 hours from surgery for 14 days, at 7 days, maintained at 14 and 28 days", "value": "significant attenuation"}, {"measurement": "No VT (number of animals)", "setting": "[3]", "value": 10}, {"measurement": "VT (number of animals)", "setting": "[3]", "value": 1}]}
